Source: publication PMC13091788 (NPJ Aging, 2026)

Key:
[1] = design: method as in PMID 24593257; conditions: cited from earlier work
[2] = test system: mitochondria isolated from hearts of aged mice; experiment: Oxygen consumption analysis of isolated cardiac mitochondria; assay type: in vivo, mouse; conditions: AcA-BRB 0.5 mg/mL in drinking water
Procedure: Mouse heart tissue was homogenized in mitochondrial isolation buffer (210 mM mannitol, 70 mM sucrose, 5 mM HEPES-KOH, 1 mM EGTA, 0.5% fatty acid-free BSA, pH 7.2) using a glass-teflon homogenizer. Homogenates were centrifuged at 27,000 × g for 10 min at 4 °C, and the resulting pellets were resuspended in mitochondrial isolation buffer. Samples were centrifuged at 500 × g for 5 min at 4 °C, and the supernatants were collected and centrifuged at 10,000 × g for 5 min at 4 °C. The pellet was then resuspended in mitochondrial isolation buffer and centrifuged for 5 min at 10,000 × g at 4 °C. The resulting pellets were suspended in BSA-free mitochondrial isolation buffer, and mitochondrial protein concentration was determined using the Bio-Rad Protein Assay Dye Reagent (Bio-Rad Laboratories). Samples were then incubated with an equal volume of mitochondrial isolation buffer and subjected to oxygen consumption analysis.
Isolated mitochondria were diluted with mitochondrial assay solution (220 mM mannitol, 70 mM sucrose, 2 mM HEPES-KOH, 1 mM EGTA, 10 mM KH2PO4, 5 mM MgCl2, 0.2% fatty acid-free BSA, 2 mM malate, 10 mM pyruvate, pH 7.2) to 80 μg/mL. […] OCR was measured under basal conditions and after each injection using an XFe24 extracellular flux analyzer (Seahorse Bioscience).

C2C12 cells [3] = experiment: Mitochondrial membrane potential (JC-1); assay type: cell-based, mouse; conditions: C2C12, Q-BRB or AcA-BRB 5 or 10 μM, 48 h
Procedure: Mitochondrial membrane potential was assessed using the JC-1 dye (JC-1, T3168, Thermo Fisher Scientific). Cells cultured in 96-well plates were washed twice with PBS and incubated with 1 μM JC-1 for 30 min at 37 °C in the dark. After incubation, cells were washed with PBS, and fluorescence intensities at 590 nm (red) and 530 nm (green) were measured using a microplate reader. The 590/530 nm fluorescence ratio was calculated and used as an index of mitochondrial membrane potential.

C2C12 cells [4] = experiment: Mitochondrial ROS (4-HNE in isolated mitochondrial fractions); assay type: cell-based, mouse; conditions: C2C12, Q-BRB or AcA-BRB 5 or 10 μM, 24 h
Description: Proteins in sample buffer were separated by SDS-PAGE and transferred to Immobilon-P PVDF membranes (IPVH00010, Millipore). Blots were probed with the indicated antibodies, and protein bands on the blot were visualized using Chemi-Lumi One L (07880-70, Nacalai Tesque) or Immobilon Western Chemiluminescent HRP Substrate (WBKLS0500, Millipore). Band images were captured using a LuminoGraph I imager (WSE-6100, ATTO). Relative band intensities were quantified using Fiji/ImageJ software. Unprocessed western blot images corresponding to the data presented in the main and supplementary figures are provided in Supplementary Figures 11–16. Mitochondria were isolated using differential centrifugation. Cells were washed twice with ice-cold PBS, harvested by scraping, and collected by centrifugation at 500 × g for 5 min at 4 °C. The resulting cell pellets were resuspended in ice-cold mitochondrial isolation buffer (250 mM sucrose, 10 mM HEPES-KOH pH 7.4, 1 mM EDTA, and protease inhibitor cocktail) and incubated on ice for 10 min. Cells were mechanically disrupted on ice using a 27 G needle. The homogenates were centrifuged at 800 × g for 10 min at 4 °C to remove nuclei and cellular debris. The supernatants were transferred to new tubes and centrifuged at 8000 × g for 10 min at 4 °C to obtain the mitochondrial fraction. […] Protein concentration was measured using the BCA Protein Assay Kit (Takara Bio).

86-week-old aged mice = experiment: Survival analysis in aged mice on normal diet; assay type: in vivo, mouse; conditions: 0.5 mg/mL in drinking water, from 86 weeks of age
Description: All experimental procedures were approved by the Ethics Review Committee for Animal Experimentation at Kumamoto University, Kumamoto, Japan (approval No. A 2024-083). Procedures followed the guidelines and recommendations outlined by the ILAR Guide for the Care and Use of Laboratory Animals (8th Edition, 2011). Prior to tissue collection, mice were euthanized under isoflurane anesthesia, followed by cervical dislocation to ensure rapid euthanasia, a procedure also employed during sacrifice for tissue harvesting. Euthanasia was performed when animals met the established criteria for humane endpoints, specifically a body weight loss exceeding 20% over a 3-day period or 25% over a 1-week period, in accordance with the Kumamoto University Ethics Review Committee for Animal Experimentation above. All animals fed a normal diet (CE-2, CLEA) were randomly assigned to two groups: tap water only and tap water supplemented with AcA-BRB (0.5 mg/mL). Mice were housed in an animal facility with lighting cycles automatically controlled (12 h light/12 h dark), maintained at a stable temperature of 22 ± 2 °C and a relative humidity of 40–80%. C57BL/6NJcl wild-type (WT) male mice aged 2, 20, and 24 months were used in this study.

Row | Structure (SMILES) | lipophilicity [1] | ROS production (4-HNE in isolated cardiac mitochondria) [2] | OCR of mitochondria isolated from hearts ([2]; vs controls) | mitochondrial membrane potential (JC-1 590/530 nm) (C2C12 cells [3]) | mitochondrial ROS (4-HNE levels in isolated mitochondrial fractions) (C2C12 cells [4]) | survival rate (86-week-old aged mice)
1 | COc1ccc2cc3n(cc-2c1=O)CCc1cc2c(cc1-3)OCO2 [Q-BRB, quinoid-type berberrubine] | very high |  |  |  |  | 
2 | COc1ccc2cc3[n+](cc2c1O)CCc1cc2c(cc1-3)OCO2 [berberrubine] |  | mild rise | improved | remained unchanged | modest increase | did not significantly affect
